Test results reported in patent publication US20140315972A1, “RS)-2-(2-oxo-4-phenylpyrrolidin-1-yl)acetamide compound having modulatory activity with a commensurate effect, pharmaceutical substance (variants) and its application, composition (variants) thereof” (priority 2011, published 2014).
Marks after values point to notes of the source that are not given here.

Columns and labels:
mice [1] = assay: Cross maze exploratory behavior, HEF and LEF mice; format: in vivo; details: i.p. once a day 5 days, Compounds 1 and 4 100 mg/kg, Piracetam 200 mg/kg
mice [2] = assay: Tremor caused by arecoline; format: in vivo; details: for Duration of tremor: mice, arecoline 25 mg/kg
Description: Studies have been conducted on white outbred male mice (18-24 g), in comparison with the olanzapine (Zyprexa) with intraperitoneal injection.

mice [3] = assay: Duration of swimming in cold (2° C.) and normal (25° C.) water; format: in vivo; details: for Duration of swimming at day 28: 4-week administration 50 mg/kg
Method: Stimulatory effect on the duration of swimming in cold (2° C.) and normal (25° C.) water (Table 8.1-8.1.1) of Phenotropil (25 and 50 mg/kg) compared with the control (distilled water) and Benzedrine (2.5 mg/kg) was studied in white outbred male mice (18-26 g) compared to control (distilled water) when intraperitoneally administered, 60 min after the administration and with a course administration for 4 weeks administration on day 28 (Table 8.1.2). […] At normal temperature of water, the effect of Benzedrine was not modified and stayed at 34%.
The advantage of psychomodulator Phenotropil is obvious both with the single dose and the course use, by the effect on physical performance and stability of the body, both in normal and more adverse temperature conditions.

mice [4] = assay: Toxic effect of ethanol (lateral position, lethal dose); format: in vivo; details: 25.0-200 mg/kg
Description: The antitoxic, sobering and anticraving, activity, as well as the effect of Phenotropil in abstinence was studied on white outbred male rats (weighing 180-220 g) and male mice (weighing 18-24 g) in chronic alcoholism. […] Alcoholized rats after four months of alcoholism and treatment with Phenotropilom voluntarily give up intake of alcohol (anticraving activity) with free choice of water and alcohol (Table 11).

mice [5] = assay: Average life duration (ALD) of mice; format: in vivo
patients = assay: Topical solution on periodontal, enamel and dentin condition; format: in vivo, human; details: for Efficacy on a 4-point scale (periodontal, enamel and dentin condition): humans, topical
Description: Studies of the effects of Phenotropil on condition of paradontium, enamel and dentin with topic application involved men and women (45-54 years) diagnosed with periodontitis, parodontosis and caries. Enrollment of groups by separate indicators in this age failed. In the vast majority of subjects, the diseases were combined. The gender ratio in groups was: 30.0% men and 70.0% women, the ratio of smokers to non-smokers 60:40, the number of female smokers was higher than male smokers by 35.0%. All patients received every three days the required amount of 0.1%, 0.2% or 0.3% solution of Phenotropil or placebo. The solutions were applied daily as dental trays (for 30 sec.) in the morning and evening at 30 ml per application for 30 days. Food and drinks intake, including water, were not recommended for 2 hours after the procedure. All patients underwent a dental check-up and standard hygienic treatment with removing plaque and dental scale and lavaging the gingival pockets with 1% Phenotropil solution. For each subject, the studied parameters were recorded; the aggregate integral indicator of the general periodontal condition of enamel and dentin was calculated, in the negative scores. The examinations were conducted once a week throughout the period of monotherapy. Simultaneous studies were conducted for evaluation of lipid peroxidation state in samples of saliva, at the baseline examination and after the course of therapy.
The positive effect of treatment with Phenotropil was observed after about 14 days and intensified in the course of therapy. Efficacy after one month of treatment with the drug was the highest and most evident at the initial stages of disease and moderate severity of […]. Effect on periodontitis was apparent, but less pronounced. Treatment of periodontitis probably requires a longer course and administration of Phenotropil tablets according to the usual regime to modulate the general functional state of the body. The ranking evaluation of efficacy (0—no effect, 1—slightly pronounced effect below 30.0% in the group, 2—average degree of efficacy from 30.0 to 50.0%, 3—high efficacy, above 50.0%) was established by an integral indicator of the aggregate of all the parameters tested.

[6] = Slendering effect, body weight and rating scales in obese humans; format: in vivo, human; details: for Body weight (%): adult humans, change vs background (not treated) = 100; for decrease of body weight: obese women
Method: A study of the slendering effect of Phenotropil (100, 200 and 300 mg once a day for 30 days) in women (37-65 years) with alimentary constitutional obesity and non-obese groups (males and females 23-47 years) are presented in Table 26. The control groups received placebo tablets. The nutrition regimen and ration were not regulated; no recommendations on calories or regimen were given. The purpose of the study was to identify the effect of the drug without the influence of the diet. To assess the condition before and after treatment, in addition to the measurement of body weight, the dynamics of the general clinical condition was studied: asthenia scale MFI-20, Hospital Anxiety and Depression Scale, the quality of life scale SF-36. The questionnaires were completed twice: one day before treatment and the next day after the end of treatment.

women = assay: Migraine attacks, intranasal drops; format: in vivo, human
Method: Table 27 presents the results of studies in women (22-35 years) diagnosed with migraine without aura (simple migraine)—5 subjects, and migraine with aura (classic migraine)—5 subjects. Phenotropil as used as nasal drops (0.1% sterile solution), 10 drops three times a day for 7 days for the purpose of relief and prevention of migraine attacks at onset of prodromal phenomena and aura episodes. 5 drops of the solution were administered into each nostril. One drop of the 0.1% standard solution contained 0.05 mg of Phenotropil.

[7] = 0.1% nasal drops, 10 drops three times a day 7 days
[8] = migraine attacks, humans, intranasally 0.5 mg × 3 times per day

## NC(=O)CN1CC(c2ccccc2)CC1=O (racemic) [Compound 1, (RS)-2-(2-oxo-4-phenylpyrrolidine-1-yl)acetamide]
Mice [1]; HEF mice
  Kt (trigger transmission coefficient): 3.3 ± 0.3
  Number of compartment explorations: 4.3 ± 0.4 //
  Number of surveillances: 1.3 ± 0.2
Mice [1]; LEF mice
  Kt (trigger transmission coefficient): 3.1 ± 0.35
  Number of compartment explorations: 5.0 ± 0.5 //
  Number of surveillances: 1.6 ± 0.2
Mice [1]; population as a whole
  Kt (trigger transmission coefficient): 3.2 ± 0.45
  Number of compartment explorations: 4.5 ± 0.7 //
  Number of surveillances: 1.4 ± 0.2
Mice [2]; 200 mg/kg
  reduction of duration of tremor: 63%
  Duration of tremor: 153 ± 27 s
Mice [2]; 300 mg/kg
  reduction of duration of tremor: 50%
  Duration of tremor: 208 ± 36 s
Mice [3]; single dose 25 mg/kg i.p.
  Duration of swimming: 161.90 ± 15.00 min
Mice [3]; single dose 50 mg/kg i.p.
  Duration of swimming: 209.83 ± 14.85 min
Mice [3]; water 2° C.
  Duration of swimming at day 28: 2.34 ± 0.15 min
Mice [3]; water 2° C., single dose 25 mg/kg i.p.
  Duration of swimming: 2.10 ± 0.17 min
Mice [3]; water 2° C., single dose 50 mg/kg i.p.
  Duration of swimming: 2.30 ± 0.22 min
Mice [3]; water 25° C.
  Duration of swimming at day 28: 222.03 ± 10.95 min
Mice [3]; water 25° C., single dose 25 mg/kg i.p.
  Duration of swimming vs control: +35%
Mice [4]
  toxic effect of ethanol (lateral position indicator and lethal dose): reduced tenfold
Mice [5]; 50 mg/kg
  ALD increase vs placebo-treated control: 15.3%
Mice [5]; 100 mg/kg
  ALD increase vs placebo-treated control: 29.3%
Mice [5]; 200 mg/kg
  ALD increase vs placebo-treated control: 12.5%
Mice [5]; 300 mg/kg
  ALD increase vs placebo-treated control: 19.6%
Mice [5]; doses below 50.0 mg/kg
  increase in life duration: 8.0-10.0%
patients; 0.1-0.3% solution as dental trays, 30 days
  smokers who quit smoking at the third week of therapy: 25.0%
patients; Phenotropil 1%
  Efficacy on a 4-point scale (periodontal, enamel and dentin condition): 2* (average degree of efficacy from 30.0 to 50.0%)
patients; Phenotropil 2%
  Efficacy on a 4-point scale (periodontal, enamel and dentin condition): 3* (high efficacy, above 50.0%)
patients; Phenotropil 3%
  Efficacy on a 4-point scale (periodontal, enamel and dentin condition): 3* (high efficacy, above 50.0%)
[6]; 100 mg/day
  Body weight (%): −12.0 * %
[6]; 200 mg/day
  Body weight (%): −15.0 * %
[6]; 300 mg/day
  Body weight (%): −17.8 * %
[6]; comorbidities
  positive effect on cramps when urinating, patients: 5 of 5
  positive effect on lost ability to sense and discriminate odors, patients: 11 of 18
  positive effect on prostatitis, patients: 3 of 3
  positive trend in chronic sinusitis, patients: 8 of 8
[6]; 100 mg once a day 30 days
  decrease of body weight: 12%
[6]; 200 mg once a day 30 days
  decrease of body weight: 15%
[6]; 300 mg once a day 30 days
  decrease of body weight: 18%
[6]; rating scales after 30 days
  decrease of anxiety and depression, on average: more than 60%
  decrease of indicators of fatigue: 92%
women; [7]
  patients (of 10) with headaches and their duration decreased significantly: 3
  patients (of 10) with no effect: 2
  patients (of 10) with prodrome and aura completely stopped without headache attacks: 5
women; [8]
  Efficacy: % of subjects with no effect: 20%
  Efficacy: % of subjects with partial effect: 30%
  Efficacy: subjects with 100% efficacy: 5/10 - 100% efficacy ^
  Efficacy: subjects with no effect: 2/10
  Efficacy: subjects with partial effect: 3/10
